Source: US10045983B2, “Heteroaryl pyridone and aza-pyrodine compounds” (Genentech, Inc., priority 2011, dated 2018)

Assay: CD69 Whole Blood Assay (CD69 Hu Blood FACS)
Format: cell-based, human
Conditions: Lymphocyte; human whole blood, anti-IgM activated B lymphocytes, FACS; IC70; Table 2 (unit inferred); read-out: CD69 Hu Blood FACS (IC70)
How it was run: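 Compounds tested for blocking B-cell CD69 induction by flow cytometry in human whole blood, with activation via anti-human IgM goat F(ab′)2 crosslinking of surface IgM.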

Row | Structure (SMILES) | IC70
1 | Cn1cc(-c2ccnc(N3CCn4c(cc5c4CCCC5)C3=O)c2CO)nc(Nc2ccc(N3CCN(C4COC4)CC3)nc2)c1=O [Example 197, 2-[3-(hydroxymethyl)-4-[4-methyl-6-[[6-[4-(oxetan-3-yl)piperazin-1-yl]-3-pyridyl]amino]-5-oxo-pyrazin-2-yl]-2-pyridyl]-3,4,6,7,8,9-hexahydropyrazino[1,2-a]indol-1-one] | 2.3 µM
2 | Cn1cc(-c2ccnc(-n3ncc4c5n(cc4c3=O)CCCC5)c2CO)cc(Nc2ccc(N3CCN(C4COC4)CC3)cn2)c1=O [Example 198, 3-[3-(hydroxymethyl)-4-[1-methyl-5-[[5-[4-(oxetan-3-yl)piperazin-1-yl]-2-pyridyl]amino]-6-oxo-3-pyridyl]-2-pyridyl]-7,8,9,10-tetrahydropyridazino[4,5-a]indolizin-4-one] | 6 µM
3 | Cn1cc(-c2ccnc(N3CCn4c(cc5c4CC(C)(C)C5)C3=O)c2CO)cc(Nc2ccn3ccnc3n2)c1=O [Example 199, 3-[3-(hydroxymethyl)-4-[5-(imidazo[1,2-a]pyrimidin-7-ylamino)-1-methyl-6-oxo-3-pyridyl]-2-pyridyl]-7,7-dimethyl-1,2,6,8-tetrahydrocyclopenta[3,4]pyrrolo[3,5-b]pyrazin-4-one] | 0.934 µM
4 | Cn1cc(-c2ccnc(N3CCn4c(cc5c4CCCC5)C3=O)c2CO)cc(Nc2ccc(C3=CCN(C4COC4)CC3)cn2)c1=O [Example 200, 2-[3-(hydroxymethyl)-4-[1-methyl-5-[[5-[1-(oxetan-3-yl)-3,6-dihydro-2H-pyridin-4-yl]-2-pyridyl]amino]-6-oxo-3-pyridyl]-2-pyridyl]-3,4,6,7,8,9-hexahydropyrazino[1,2-a]indol-1-one] | 0.636 µM
5 | Cn1cc(-c2ccnc(N3CCn4c(cc5c4CC(C)(C)C5)C3=O)c2CO)nc(Nc2ccc3nccn3c2)c1=O [Example 201, 3-[3-(hydroxymethyl)-4-[6-(imidazo[1,2-a]pyridin-6-ylamino)-4-methyl-5-oxo-pyrazin-2-yl]-2-pyridyl]-7,7-dimethyl-1,2,6,8-tetrahydrocyclopenta[3,4]pyrrolo[3,5-b]pyrazin-4-one] | 3.3 µM
6 | CN1CCn2nc(Nc3cc(-c4ccnc(-n5ncc6c7n(cc6c5=O)CCCC7)c4CO)cn(C)c3=O)cc2C1 [Example 202, 3-[3-(hydroxymethyl)-4-[1-methyl-5-[(5-methyl-6,7-dihydro-4H-pyrazolo[1,5-a]pyrazin-2-yl)amino]-6-oxo-3-pyridyl]-2-pyridyl]-7,8,9,10-tetrahydropyridazino[4,5-a]indolizin-4-one] | 7.3 µM
7 | CN1CCc2nc(Nc3cc(-c4ccnc(N5CCn6c(cc7c6CC(C)(C)C7)C5=O)c4CO)cn(C)c3=O)sc2C1 [Example 203, 3-[3-(hydroxymethyl)-4-[1-methyl-5-[(5-methyl-6,7-dihydro-4H-thiazolo[5,4-c]pyridin-2-yl)amino]-6-oxo-3-pyridyl]-2-pyridyl]-7,7-dimethyl-1,2,6,8-tetrahydrocyclopenta[3,4]pyrrolo[3,5-b]pyrazin-4-one] | 0.0605 µM
8 | CN1CCn2nc(Nc3cc(-c4ccnc(-n5ncc6c(cc7n6CCCC7)c5=O)c4CO)cn(C)c3=O)cc2C1 [Example 204, 2-[3-(hydroxymethyl)-4-[1-methyl-5-[(5-methyl-6,7-dihydro-4H-pyrazolo[1,5-a]pyrazin-2-yl)amino]-6-oxo-3-pyridyl]-2-pyridyl]-6,7,8,9-tetrahydropyridazino[4,5-b]indolizin-1-one] | 0.436 µM
9 | Cn1cc(-c2ccnc(N3CCn4c(cc5c4CCCC5)C3=O)c2CO)cc(Nc2cc3n(n2)CCNC3)c1=O [Example 205, 2-[3-(hydroxymethyl)-4-[1-methyl-6-oxo-5-(4,5,6,7-tetrahydropyrazolo[1,5-a]pyrazin-2-ylamino)-3-pyridyl]-2-pyridyl]-3,4,6,7,8,9-hexahydropyrazino[1,2-a]indol-1-one] | 0.114 µM
10 | CN1CC(Oc2ccc(Nc3cc(-c4ccnc(N5CCn6c(cc7c6CCCC7)C5=O)c4CO)cn(C)c3=O)nc2)C1 [Example 206, 2-[3-(hydroxymethyl)-4-[1-methyl-5-[[5-(1-methylazetidin-3-yl)oxy-2-pyridyl]amino]-6-oxo-3-pyridyl]-2-pyridyl]-3,4,6,7,8,9-hexahydropyrazino[1,2-a]indol-1-one] | 0.15 µM
11 | CN1CC(Oc2ccc(Nc3cc(-c4ccnc(N5CCn6c(cc7c6CC(C)(C)C7)C5=O)c4CO)cn(C)c3=O)nc2)C1 [Example 207, 3-[3-(hydroxymethyl)-4-[1-methyl-5-[[5-(1-methylazetidin-3-yl)oxy-2-pyridyl]amino]-6-oxo-3-pyridyl]]-7,7-dimethyl-1,2,6,8-tetrahydrocyclopenta[3,4]pyrrolo[3,5-b]pyrazin-4-one] | 0.0414 µM
12 | CCN1CCn2nc(Nc3cc(-c4ccnc(N5CCc6c(cc7n6CCCC7)C5=O)c4CO)cn(C)c3=O)cc2C1 [Example 208, 2-[4-[5-[(5-ethyl-6,7-dihydro-4H-pyrazolo[1,5-a]pyrazin-2-yl)amino]-1-methyl-6-oxo-3-pyridyl]-3-(hydroxymethyl)-2-pyridyl]-3,4,6,7,8,9-hexahydropyrido[3,4-b]indolizin-1-one] | 0.58 µM
13 | CC(=O)N1CCn2nc(Nc3cc(-c4ccnc(N5CCn6c(cc7c6CCCC7)C5=O)c4CO)cn(C)c3=O)cc2C1 [Example 209, 2-[4-[5-[(5-acetyl-6,7-dihydro-4H-pyrazolo[1,5-a]pyrazin-2-yl)amino]-1-methyl-6-oxo-3-pyridyl]-3-(hydroxymethyl)-2-pyridyl]-3,4,6,7,8,9-hexahydropyrazino[1,2-a]indol-1-one] | 0.116 µM
14 | C[C@H]1CN(C2COC2)CCN1c1ccc(Nc2cc(-c3ccnc(N4CCn5c(cc6c5CC(C)(C)C6)C4=O)c3C(N)=O)cn(C)c2=O)nc1 [Example 210, 2-(7,7-dimethyl-4-oxo-1,2,6,8-tetrahydrocyclopenta[3,4]pyrrolo[3,5-b]pyrazin-3-yl)-4-[1-methyl-5-[[5-[(2S)-2-methyl-4-(oxetan-3-yl)piperazin-1-yl]-2-pyridyl]amino]-6-oxo-3-pyridyl]pyridine-3-carboxamide] | 0.914 µM
15 | CNC(=O)c1c(-c2cc(Nc3ccc(N4CCN(C5COC5)C[C@@H]4C)cn3)c(=O)n(C)c2)ccnc1N1CCn2c(cc3c2CC(C)(C)C3)C1=O [Example 211, 2-(7,7-dimethyl-4-oxo-1,2,6,8-tetrahydrocyclopenta[3,4]pyrrolo[3,5-b]pyrazin-3-yl)-N-methyl-4-[1-methyl-5-[[5-[(2S)-2-methyl-4-(oxetan-3-yl)piperazin-1-yl]-2-pyridyl]amino]-6-oxo-3-pyridyl]pyridine-3-carboxamide] | 2.1 µM
16 | CC(=O)N1CCn2nc(Nc3cc(-c4ccnc(N5CCn6c(cc7c6CC(C)(C)C7)C5=O)c4CO)cn(C)c3=O)cc2C1 [Example 212, 3-[4-[5-[(5-acetyl-6,7-dihydro-4H-pyrazolo[1,5-a]pyrazin-2-yl)amino]-1-methyl-6-oxo-3-pyridyl]-3-(hydroxymethyl)-2-pyridyl]-7,7-dimethyl-1,2,6,8-tetrahydrocyclopenta[3,4]pyrrolo[3,5-b]pyrazin-4-one] | 0.0152 µM
17 | Cc1nccc(Nc2cc(-c3ccnc(N4CCn5c6c(c(F)c5C4=O)CCCC6)c3CO)cn(C)c2=O)n1 [Example 213, 10-fluoro-2-[3-(hydroxymethyl)-4-[1-methyl-5-[(2-methylpyrimidin-4-yl)amino]-6-oxo-3-pyridyl]-2-pyridyl]-3,4,6,7,8,9-hexahydropyrazino[1,2-a]indol-1-one] | 0.62 µM
18 | Cn1cc(-c2ccnc(N3CCn4c(cc5c4CC(C)(C)C5)C3=O)c2CO)cc(Nc2nc3c(s2)COCC3)c1=O [Example 214, 3-[4-[5-(6,7-dihydro-4H-pyrano[4,3-d]thiazol-2-ylamino)-1-methyl-6-oxo-3-pyridyl]-3-(hydroxymethyl)-2-pyridyl]-7,7-dimethyl-1,2,6,8-tetrahydrocyclopenta[3,4]pyrrolo[3,5-b]pyrazin-4-one] | 0.124 µM
19 | Cc1nccc(Nc2cc(-c3cncc(N4CCn5c(cc6c5CC(C)(C)C6)C4=O)c3CO)cn(C)c2=O)n1 [Example 215, 3-[4-(hydroxymethyl)-5-[1-methyl-5-[(2-methylpyrimidin-4-yl)amino]-6-oxo-3-pyridyl]-3-pyridyl]-7,7-dimethyl-1,2,6,8-tetrahydrocyclopenta[3,4]pyrrolo[3,5-b]pyrazin-4-one] | 0.457 µM
20 | CN1CCc2nc(Nc3cc(-c4ccnc(-n5ncc6c7c(sc6c5=O)CCCC7)c4CO)cn(C)c3=O)sc2C1 [Example 216, 3-[3-(hydroxymethyl)-4-[1-methyl-5-[(5-methyl-6,7-dihydro-4H-thiazolo[5,4-c]pyridin-2-yl)amino]-6-oxo-3-pyridyl]-2-pyridyl]-6,7,8,9-tetrahydrobenzothiopheno[2,3-d]pyridazin-4-one] | 0.357 µM
21 | Cn1cc(-c2ccnc(N3CCn4c(cc5c4CCCC5)C3=O)c2CO)cc(Nc2ccc3[nH]cnc3n2)c1=O [Example 217, 2-[3-(hydroxymethyl)-4-[5-(1H-imidazo[4,5-b]pyridin-5-ylamino)-1-methyl-6-oxo-3-pyridyl]-2-pyridyl]-3,4,6,7,8,9-hexahydropyrazino[1,2-a]indol-1-one] | 2.9 µM
22 | Cc1cc(Nc2cc(-c3ccnc(N4CCn5c(cc6c5CC(C)(C)C6)C4=O)c3CO)cn(C)c2=O)nn1C [Example 218, 3-[4-[5-[(1,5-dimethylpyrazol-3-yl)amino]-1-methyl-6-oxo-3-pyridyl]-3-(hydroxymethyl)-2-pyridyl]-7,7-dimethyl-1,2,6,8-tetrahydrocyclopenta[3,4]pyrrolo[3,5-b]pyrazin-4-one] | 0.0741 µM
23 | Cn1cc(-c2ccnc(N3CCn4c(cc5c4CC(C)(C)C5)C3=O)c2CO)nc(Nc2cccc(N)c2)c1=O [Example 219, 3-[4-[6-(3-aminoanilino)-4-methyl-5-oxo-pyrazin-2-yl]-3-(hydroxymethyl)-2-pyridyl]-7,7-dimethyl-1,2,6,8-tetrahydrocyclopenta[3,4]pyrrolo[3,5-b]pyrazin-4-one] | 0.204 µM
24 | C[C@H]1CN(C2COC2)CCN1c1ccc(Nc2cc(-c3ccnc(N4CCn5c(cc6c5CCCC6)C4)c3CO)cn(C)c2=O)nc1 [Example 220, 5-[2-(3,4,6,7,8,9-hexahydro-1H-pyrazino[1,2-a]indol-2-yl)-3-(hydroxymethyl)-4-pyridyl]-1-methyl-3-[[5-[(2S)-2-methyl-4-(oxetan-3-yl)piperazin-1-yl]-2-pyridyl]amino]pyridin-2-one] | 1.6 µM
